# pIC50: −log10 of the molar value.
# Tested on: not listed separately
# Experiment: Aqueous solubility in phosphate buffer at pH 6.5
# Format: physicochemical
# Conditions: not given
row,SMILES,solubility
1,O=C(NOCCO)c1ccc(F)c(F)c1Nc1ccc(I)cc1Cl,< 1 µg/mL
2,O=C(NOC[C@H](O)CO)c1ccc(F)c(F)c1Nc1ccc(I)cc1F [MIRDAMETINIB],190 µg/mL

# Continued, values first:
row,solubility,SMILES
1,255 µg/mL,O=C(NOC[C@@H](O)CO)c1ccc(F)c(F)c1Nc1ccc(I)cc1F
2,< 1 µg/mL,O=C(NOCC1CC1)c1ccc(F)c(F)c1Nc1ccc(I)cc1F
3,147 µg/mL,O=C(NOCC(O)CO)c1ccc(F)c(F)c1Nc1ccc(I)cc1F (racemic)

# Tested on: not listed separately
# Experiment: Antitumor activity in mouse C26 cells xenografted mouse assessed as minimal effective dose
# Format: functional
# Conditions: read-out: MED
row,SMILES,minimal effective dose
1,O=C(NOC[C@H](O)CO)c1ccc(F)c(F)c1Nc1ccc(I)cc1F [MIRDAMETINIB],1.6 mg/kg

# Tested on: not listed separately
# Experiment: Inhibition of MEK-mediated ERK phosphorylation in PDGF-stimulated mouse K-Balb cells treated as single oral dose preincubated for 1 hr before PDGF challenge by whole cell assay
# Conditions: not given
row,SMILES,pIC50
1,O=C(NOCC1CC1)c1ccc(F)cc1Nc1ccc(I)cc1Cl,7.26
2,Cc1cc(I)ccc1Nc1cc(F)ccc1C(=O)NO,8.45
3,Cc1cc(I)ccc1Nc1cc(F)ccc1C(=O)NOCC1CC1,7.63
4,Cc1cc(I)ccc1Nc1c(C(=O)NOCC2CC2)ccc(F)c1F,8.19
5,O=C(NO)c1ccc(F)cc1Nc1ccc(I)cc1Cl,8.80

# Results, then the compound that gave them:
row,pIC50,SMILES
1,8.09,Cc1cc(I)ccc1Nc1c(C(=O)NOC(C)C)ccc(F)c1F
2,7.58,Cc1cc(I)ccc1Nc1c(C(=O)NOCC2CC2)cc(Br)c(F)c1F
3,7.12,Cc1cc(I)ccc1Nc1c(C(=O)NOCC2CCC2)cc(Br)c(F)c1F
4,8.61,O=C(NOCC1CC1)c1ccc(F)c(F)c1Nc1ccc(I)cc1Cl [CI-1040]
5,5.94,Cc1cc(I)ccc1Nc1c(C(=O)NOCC2CCCCC2)cc(Br)c(F)c1F

# Tested on: not listed separately
# Experiment: Antitumor activity in mouse C26 cells xenografted mouse assessed as 100% reduction in tumor mass at 1.6 mg/kg/treatment, po qd after 14 days
# Format: functional
# Design: scale not given: the % may be the effect or the level left
# Conditions: not given
row,SMILES,Activity
1,O=C(NOC[C@H](O)CO)c1ccc(F)c(F)c1Nc1ccc(I)cc1F [MIRDAMETINIB],20%

# Tested on: Mus musculus
# Experiment: Inhibition of MEK-mediated ERK phosphorylation in mouse C26 cells xenografted mouse at 12.5 mg/kg, po after 1 day
# Format: functional
# Conditions: C26, 24 h
row,SMILES,inhibition in vivo at 12.5 mg/kg
1,O=C(NOC[C@H](O)CO)c1ccc(F)c(F)c1Nc1ccc(I)cc1F [MIRDAMETINIB],59%

# Tested on: Mus musculus
# Experiment: Inhibition of MEK-mediated ERK phosphorylation in mouse C26 cells xenografted mouse at 50 mg/kg, po after 1 day
# Format: functional
# Conditions: C26, 24 h
row,SMILES,inhibition in vivo at 50 mg/kg
1,O=C(NOC[C@H](O)CO)c1ccc(F)c(F)c1Nc1ccc(I)cc1F [MIRDAMETINIB],84%

# Tested on: not listed separately
# Experiment: Toxicity in mouse assessed as maximum tolerated dose
# Format: organism-based
# Conditions: in vivo
row,SMILES,MTD
1,O=C(NOC[C@H](O)CO)c1ccc(F)c(F)c1Nc1ccc(I)cc1F [MIRDAMETINIB],25 mg/kg

# Tested on: not listed separately
# Experiment: Distribution coefficient, log D of the compound
# Format: physicochemical
# Conditions: octanol/water
row,SMILES,logD
1,O=C(NOCC1CC1)c1ccc(F)c(F)c1Nc1ccc(I)cc1Cl [CI-1040],> 5
2,O=C(NOC[C@H](O)CO)c1ccc(F)c(F)c1Nc1ccc(I)cc1F [MIRDAMETINIB],4.6

# Tested on: not listed separately
# Experiment: Antitumor activity in mouse C26 cells xenografted mouse assessed as tumor growth delay at 75 mg/kg/treatment, po dosed thrice a day after 14 days relative to control
# Format: functional
# Conditions: not given
row,SMILES,Activity
1,O=C(NOCC1CC1)c1ccc(F)c(F)c1Nc1ccc(I)cc1Cl [CI-1040],10.8 days

# Tested on: not listed separately
# Experiment: Antitumor activity in mouse C26 cells xenografted mouse assessed as 50% reduction in tumor mass at 1.6 mg/kg/treatment, po qd after 14 days
# Format: functional
# Design: scale not given: the % may be the effect or the level left
# Conditions: not given
row,SMILES,Activity
1,O=C(NOC[C@H](O)CO)c1ccc(F)c(F)c1Nc1ccc(I)cc1F [MIRDAMETINIB],0%

# Tested on: not listed separately
# Experiment: Antitumor activity in mouse C26 cells xenografted mouse assessed as 50% reduction in tumor mass at 300 mg/kg/treatment, po dosed thrice a day after 14 days
# Format: functional
# Design: scale not given: the % may be the effect or the level left
# Conditions: not given
row,SMILES,Activity
1,O=C(NOCC1CC1)c1ccc(F)c(F)c1Nc1ccc(I)cc1Cl [CI-1040],30%

# Tested on: not listed separately
# Experiment: Antitumor activity in mouse C26 cells xenografted mouse assessed as 100% reduction in tumor mass at 25 mg/kg/treatment, po qd after 14 days
# Format: functional
# Design: scale not given: the % may be the effect or the level left
# Conditions: not given
row,SMILES,Activity
1,O=C(NOC[C@H](O)CO)c1ccc(F)c(F)c1Nc1ccc(I)cc1F [MIRDAMETINIB],70%

# Tested on: not listed separately
# Experiment: Antitumor activity in mouse C26 cells xenografted mouse assessed as tumor growth delay at 300 mg/kg/treatment, po dosed thrice a day after 14 days relative to control
# Format: functional
# Conditions: not given
row,SMILES,Activity
1,O=C(NOCC1CC1)c1ccc(F)c(F)c1Nc1ccc(I)cc1Cl [CI-1040],12.7 days

# Tested on: not listed separately
# Experiment: Antitumor activity in mouse C26 cells xenografted mouse assessed as 50% reduction in tumor mass at 25 mg/kg/treatment, po qd after 14 days
# Format: functional
# Design: scale not given: the % may be the effect or the level left
# Conditions: not given
row,SMILES,Activity
1,O=C(NOC[C@H](O)CO)c1ccc(F)c(F)c1Nc1ccc(I)cc1F [MIRDAMETINIB],30%

# Tested on: Mus musculus
# Experiment: Inhibition of MEK-mediated ERK phosphorylation in mouse C26 cells xenografted mouse at 100 mg/kg, po after 1 day
# Format: functional
# Conditions: C26, 24 h
row,SMILES,inhibition in vivo at 100 mg/kg
1,O=C(NOCC1CC1)c1ccc(F)c(F)c1Nc1ccc(I)cc1Cl [CI-1040],14%

# Tested on: not listed separately
# Experiment: Antitumor activity in mouse C26 cells xenografted mouse assessed as tumor growth delay at 1.6 mg/kg/treatment, po qd after 14 days relative to control
# Format: functional
# Conditions: not given
row,SMILES,Activity
1,O=C(NOC[C@H](O)CO)c1ccc(F)c(F)c1Nc1ccc(I)cc1F [MIRDAMETINIB],7.7 days

# Tested on: not listed separately
# Experiment: Antitumor activity in mouse C26 cells xenografted mouse assessed as 100% reduction in tumor mass at 300 mg/kg/treatment, po dosed thrice a day after 14 days
# Format: functional
# Design: scale not given: the % may be the effect or the level left
# Conditions: not given
row,SMILES,Activity
1,O=C(NOCC1CC1)c1ccc(F)c(F)c1Nc1ccc(I)cc1Cl [CI-1040],70%

# Tested on: not listed separately
# Experiment: Antitumor activity in mouse C26 cells xenografted mouse assessed as tumor growth delay at 25 mg/kg/treatment, po qd after 14 days relative to control
# Format: functional
# Conditions: not given
row,SMILES,Activity
1,O=C(NOC[C@H](O)CO)c1ccc(F)c(F)c1Nc1ccc(I)cc1F [MIRDAMETINIB],15.4 days

# Biological target: not listed separately
# Experiment: Inhibition of MEK-mediated phosphorylation of myelin basic protein by kinase cascade assay
# Conditions: not given
row,SMILES,pIC50
1,O=C(NOCC1CC1)c1ccc(F)cc1Nc1ccc(I)cc1Cl,7.89
2,Cc1cc(I)ccc1Nc1cc(F)ccc1C(=O)NO,8.10
3,Cc1cc(I)ccc1Nc1cc(F)ccc1C(=O)NOCC1CC1,7.57
4,Cc1cc(I)ccc1Nc1c(C(=O)NOCC2CC2)ccc(F)c1F,8.15
5,O=C(NO)c1ccc(F)cc1Nc1ccc(I)cc1Cl,8.55

# Now from value to compound:
row,pIC50,SMILES
1,7.46,Cc1cc(I)ccc1Nc1c(C(=O)NOC(C)C)ccc(F)c1F
2,8.11,Cc1cc(I)ccc1Nc1c(C(=O)NOCC2CC2)cc(Br)c(F)c1F
3,8.00,Cc1cc(I)ccc1Nc1c(C(=O)NOCC2CCC2)cc(Br)c(F)c1F
4,8.64,O=C(NOCC1CC1)c1ccc(F)c(F)c1Nc1ccc(I)cc1Cl [CI-1040]
5,7.32,Cc1cc(I)ccc1Nc1c(C(=O)NOCC2CCCCC2)cc(Br)c(F)c1F

# Tested on: not listed separately
# Experiment: Inhibition of MEK-stimulated ERK phosphorylation in PDGF-stimulated mouse C26 cells treated as single oral dose before PDGF challenge by whole cell assay
# Format: cell-based
# Conditions: not given
row,pIC50,SMILES
1,8.46,O=C(NOCCO)c1ccc(F)c(F)c1Nc1ccc(I)cc1Cl
2,7.46,O=C(NOCC1CC1)c1ccc(F)c(F)c1Nc1ccc(I)cc1Cl [CI-1040]
3,9.00,O=C(NOCC1CC1)c1ccc(F)c(F)c1Nc1ccc(I)cc1F

# Tested on: not listed separately
# Experiment: Metabolic stability in human liver microsomes
# Format: ADME, Microsome
# Conditions: not given
row,SMILES,half-life
1,O=C(NOCC1CC1)c1ccc(F)c(F)c1Nc1ccc(I)cc1Cl [CI-1040],0.192 h
2,O=C(NOC[C@H](O)CO)c1ccc(F)c(F)c1Nc1ccc(I)cc1F [MIRDAMETINIB],> 1.67 h

# Tested on: not listed separately
# Experiment: Antitumor activity in mouse C26 cells xenografted mouse assessed as 50% reduction in tumor mass at 75 mg/kg/treatment, po dosed thrice a day after 14 days
# Format: functional
# Design: scale not given: the % may be the effect or the level left
# Conditions: not given
row,SMILES,Activity
1,O=C(NOCC1CC1)c1ccc(F)c(F)c1Nc1ccc(I)cc1Cl [CI-1040],20%

# Tested on: not listed separately
# Experiment: Antitumor activity in mouse C26 cells xenografted mouse assessed as 100% reduction in tumor mass at 75 mg/kg/treatment, po dosed thrice a day after 14 days
# Format: functional
# Design: scale not given: the % may be the effect or the level left
# Conditions: not given
row,SMILES,Activity
1,O=C(NOCC1CC1)c1ccc(F)c(F)c1Nc1ccc(I)cc1Cl [CI-1040],10%

# Tested on: not listed separately
# Experiment: Metabolic stability in human hepatocytes
# Format: ADME, cell-based, Liver, Hepatocyte
# Conditions: not given
row,SMILES,half-life
1,O=C(NOCC1CC1)c1ccc(F)c(F)c1Nc1ccc(I)cc1Cl [CI-1040],1.67 h
2,O=C(NOC[C@H](O)CO)c1ccc(F)c(F)c1Nc1ccc(I)cc1F [MIRDAMETINIB],6.17 h

# Tested on: not listed separately
# Experiment: Inhibition of MEK-mediated ERK phosphorylation in PDGF-stimulated mouse K-Balb cells treated as single oral dose preincubated for 24 hrs before PDGF challenge by whole cell assay
# Conditions: not given
row,SMILES,pIC50
1,O=C(NOCC1CC1)c1ccc(F)cc1Nc1ccc(I)cc1Cl,7.07
2,Cc1cc(I)ccc1Nc1cc(F)ccc1C(=O)NO,6.20
3,Cc1cc(I)ccc1Nc1cc(F)ccc1C(=O)NOCC1CC1,6.59
4,Cc1cc(I)ccc1Nc1c(C(=O)NOCC2CC2)ccc(F)c1F,6.76
5,O=C(NO)c1ccc(F)cc1Nc1ccc(I)cc1Cl,6.19

# Now from value to compound:
row,pIC50,SMILES
1,6.63,Cc1cc(I)ccc1Nc1c(C(=O)NOC(C)C)ccc(F)c1F
2,6.95,Cc1cc(I)ccc1Nc1c(C(=O)NOCC2CC2)cc(Br)c(F)c1F
3,6.49,Cc1cc(I)ccc1Nc1c(C(=O)NOCC2CCC2)cc(Br)c(F)c1F
4,7.45,O=C(NOCC1CC1)c1ccc(F)c(F)c1Nc1ccc(I)cc1Cl [CI-1040]
5,5.75,Cc1cc(I)ccc1Nc1c(C(=O)NOCC2CCCCC2)cc(Br)c(F)c1F

# Tested on: not listed separately
# Experiment: Permeability across human Caco-2 cells
# Format: ADME, cell-based
# Conditions: read-out: permeability
row,SMILES,Papp
1,O=C(NOCC1CC1)c1ccc(F)c(F)c1Nc1ccc(I)cc1Cl [CI-1040],16.2 ×10⁻⁶ cm/s
2,O=C(NOC[C@H](O)CO)c1ccc(F)c(F)c1Nc1ccc(I)cc1F [MIRDAMETINIB],72.7 ×10⁻⁶ cm/s

# — ChEMBL document CHEMBL1152168 (Bioorg Med Chem Lett, 2008)
